The text below walks through data of ChEMBL document CHEMBL5724709, “EUbOPEN Chemogenomics Library - IncuCyte” (2024).

Common to all, as to assay type: toxicity, cell-based
One data set concerns HEK-293T. As to the kind of experiment: Incucyte cell viability with HEK293T. The following applies: human, 24 h, 10 µM, compound concentration 10 uM.
The subject of a further data set is Fibroblast. As to the kind of experiment: Incucyte cell viability with human fibroblast. The note with it: 24 h, 10 µM, compound concentration 10 uM.
A further data set relates to U2OS. As to the kind of experiment: Incucyte cell viability with U2OS. The following applies: human, 24 h, 10 µM, compound concentration 10 uM.
Further: unitless GR value; below 1 slowed growth and below 0 cell loss.

Take `CC(=O)Nc1ccc(OC[C@](C)(O)C(=O)Nc2ccc([N+](=O)[O-])c(C(F)(F)F)c2)cc1`: the “Growth Rate” value in the data set with HEK-293T (replicate number 1) was 0.72; in the data set with HEK-293T (replicate number 2), 0.87; in the data set with Fibroblast (replicate number 1), 0.07; with Fibroblast (replicate number 2) it was 1; with U2OS (replicate number 1), 1; with U2OS (replicate number 2) it was 0.76.

Take `COc1cc(Oc2ccnc3cc(OC)c(OC)cc23)ccc1NC(=O)NC(C)c1nccs1` (stereo unspecified): the “Growth Rate” value with HEK-293T (replicate number 1) is 1; with Fibroblast (replicate number 1), 0.18; in the data set with Fibroblast (replicate number 2) it was -0.01; with U2OS (replicate number 1), 0.56; in the data set on U2OS (replicate number 2), 0.82.

With `Oc1ccc(-c2c(-c3ccccc3)nn3c(C(F)(F)F)cc(C(F)(F)F)nc23)cc1`, the “Growth Rate” value in the data set with HEK-293T (replicate number 1) was 1; in the data set on HEK-293T (replicate number 2) it was 0.97; in the data set on Fibroblast (replicate number 1), 1; in the data set with Fibroblast (replicate number 2), 0.27; in the data set with U2OS (replicate number 1), 1.

For `COc1ccc(N(C(=O)Oc2c(C)cccc2C)c2ccnc(Nc3ccc(N4CCN(C)CC4)cc3)n2)c(OC)c1`, the “Growth Rate” value is 0.49 with HEK-293T (replicate number 1); 0.97 with HEK-293T (replicate number 2); 0.52 in the data set on Fibroblast (replicate number 1); 1 in the data set with Fibroblast (replicate number 2); 0.04 in the data set with U2OS (replicate number 1); 0.72 with U2OS (replicate number 2).

With `CCN1C(C)(C)CC(Oc2ccc(C(=O)Nc3ccc(NC(=O)Nc4cc(C(C)(C)C)on4)cc3)nc2)CC1(C)C`, the “Growth Rate” value with HEK-293T (replicate number 1) is -0.29; in the data set with HEK-293T (replicate number 2), 0.58; with Fibroblast (replicate number 1) it was 0.74; in the data set with Fibroblast (replicate number 2), 0.78; in the data set on U2OS (replicate number 1), 0.51; with U2OS (replicate number 2), 0.66.

`Cc1cc(OCc2nnc(SC3CCCC3)n2-c2cccnc2)ccc1-c1ccc(S(C)(=O)=O)cc1`: the “Growth Rate” value in the data set with HEK-293T (replicate number 1) is given as -0.22; with Fibroblast (replicate number 1) it was -0.37; in the data set with Fibroblast (replicate number 2), -0.82; with U2OS (replicate number 1), -0.5; in the data set with U2OS (replicate number 2), -0.4.

Turning to `N=C(N)N/N=C/c1cccc(Cl)c1Cl`, the “Growth Rate” value in the data set with HEK-293T (replicate number 1) is given as 0.5; with HEK-293T (replicate number 2), 0.8; in the data set with Fibroblast (replicate number 1), 0.46; in the data set on Fibroblast (replicate number 2) it was 0.86; in the data set with U2OS (replicate number 1), 0.24; with U2OS (replicate number 2), 0.53.

For the molecule `O=C(C=Cc1ccc(O)cc1)c1ccc(O)cc1O`, the “Growth Rate” value in the data set on HEK-293T (replicate number 1) is given as 0.72; with HEK-293T (replicate number 2), 0.82; in the data set with Fibroblast (replicate number 1), 0.64; in the data set with Fibroblast (replicate number 2), 1; in the data set on U2OS (replicate number 1), 0.9; in the data set with U2OS (replicate number 2) it was 0.75.

With `O=C(Nc1ccc2[nH]nc(-c3ccncc3)c2c1)[C@@H]1CCN(CC(=O)N2CCN(c3ccc(-c4ncccn4)cc3)CC2)C1`, the “Growth Rate” value was -0.08 in the data set on HEK-293T (replicate number 1); -0.01 in the data set with HEK-293T (replicate number 2); 1 with Fibroblast (replicate number 1); 0.65 in the data set on U2OS (replicate number 1); 1 in the data set on U2OS (replicate number 2).

For the molecule `O=C(C1CC1)N1CC[C@@H](Cc2n[nH]c(=O)n2-c2ccc(-c3ccc4occc4c3)cc2)C1`, the “Growth Rate” value was 0.73 with HEK-293T (replicate number 1); 1 with HEK-293T (replicate number 2); 0.43 with Fibroblast (replicate number 1); 0 in the data set with Fibroblast (replicate number 2); 0.54 in the data set with U2OS (replicate number 1); 0.69 in the data set on U2OS (replicate number 2).

Regarding `O=C(NO)c1cnc(NC2(c3ccccc3)CC2)nc1`, the “Growth Rate” value in the data set with HEK-293T (replicate number 1) is 0.73; in the data set with HEK-293T (replicate number 2) it was 0.94; with Fibroblast (replicate number 1) it was -0.29; with Fibroblast (replicate number 2) it was 0.31; in the data set on U2OS (replicate number 1) it was -0.38; with U2OS (replicate number 2), -0.13.

For `O=C(c1ccc2c(ccn2-c2ccc(F)cc2)c1)N1CC(N2CCN(C(=O)c3nccs3)CC2)C1`, the “Growth Rate” value in the data set on HEK-293T (replicate number 1) came out at 0.76; in the data set with HEK-293T (replicate number 2), 0.97; with Fibroblast (replicate number 1), 0.6; in the data set on Fibroblast (replicate number 2) it was 1; in the data set with U2OS (replicate number 1), 0.99; in the data set on U2OS (replicate number 2) it was 0.91.

Take `CSc1cccc(Nc2ncc3cc(-c4c(Cl)cccc4Cl)c(=O)n(C)c3n2)c1`: the “Growth Rate” value in the data set on HEK-293T (replicate number 1) is -0.41; with HEK-293T (replicate number 2), 0.24; in the data set with Fibroblast (replicate number 1), -0.25; in the data set with Fibroblast (replicate number 2) it was -0.52; in the data set on U2OS (replicate number 1), -0.64; with U2OS (replicate number 2), -0.15.

In the case of `Cc1ncsc1-c1ccc([C@H](C)NC(=O)[C@@H]2C[C@@H](O)CN2C(=O)[C@@H](NC(=O)COCCCOCCNC(=O)C[C@@H]2N=C(c3ccc(Cl)cc3)c3c(sc(C)c3C)-n3c(C)nnc32)C(C)(C)C)cc1`, the “Growth Rate” value is recorded as 0.46 with HEK-293T (replicate number 1); 0.43 in the data set on HEK-293T (replicate number 2); -0.26 in the data set with Fibroblast (replicate number 1); -0.44 in the data set with Fibroblast (replicate number 2); -0.38 with U2OS (replicate number 1); 0.03 in the data set on U2OS (replicate number 2).

Take `Cc1cc(Cn2c(=O)n(Cc3cnc(C)s3)c(=O)c3cc(S(=O)(=O)NC4(C)CC4)ccc32)n(C)n1`: the “Growth Rate” value with HEK-293T (replicate number 1) is given as 0.6; in the data set with HEK-293T (replicate number 2), 0.74; in the data set with Fibroblast (replicate number 1) it was 0.47; in the data set on Fibroblast (replicate number 2) it was 0.68; with U2OS (replicate number 1) it was 0.64; in the data set on U2OS (replicate number 2) it was 0.54.

Take `C[C@@H]1CN(c2ncc(Cl)c(Nc3ccc4c(c3)n(CCC(C)(C)O)c(=O)n4C)n2)C[C@H](C)C1(F)F`: the “Growth Rate” value is on record as 0.18 in the data set with HEK-293T (replicate number 1); 0.21 in the data set with HEK-293T (replicate number 2); 0.91 in the data set with Fibroblast (replicate number 1); -0.13 in the data set on Fibroblast (replicate number 2); 0.72 with U2OS (replicate number 1); 0.69 with U2OS (replicate number 2).

Take `N#Cc1ccc([C@H]2CCCC[C@H]2O)cc1C(F)(F)F`: the “Growth Rate” value in the data set with HEK-293T (replicate number 1) is given as 0.83; in the data set on HEK-293T (replicate number 2) it was 0.95; in the data set on Fibroblast (replicate number 1), 0.21; in the data set on Fibroblast (replicate number 2) it was 1; in the data set on U2OS (replicate number 1), 1; in the data set on U2OS (replicate number 2), 0.84.

In the case of `CC(C)(O)c1ccc(N2Cc3c(ccnc3-c3ccc(F)cc3OCC(F)(F)F)C2=O)cc1`, the “Growth Rate” value in the data set on HEK-293T (replicate number 1) is 0.87; in the data set with HEK-293T (replicate number 2), 1; in the data set on Fibroblast (replicate number 1), 0.68; in the data set on Fibroblast (replicate number 2), 0.44; in the data set on U2OS (replicate number 1), 0.05; with U2OS (replicate number 2) it was 1.

Regarding `[2H]C([2H])([2H])C1(C([2H])([2H])[2H])Cn2nc(-c3ccc(F)cn3)c(-c3ccnc4[nH]ncc34)c2CO1`, the “Growth Rate” value with HEK-293T (replicate number 1) is 0.81; in the data set with HEK-293T (replicate number 2) it was 0.89; with Fibroblast (replicate number 1) it was 0.73; in the data set with Fibroblast (replicate number 2), 1; with U2OS (replicate number 1), 0.32; with U2OS (replicate number 2), 0.8.

In the case of `O=C(NCCCn1ccnc1)c1cc2nc(-c3ccccc3)cc(-c3ccccc3)n2n1`, the “Growth Rate” value is 0.48 in the data set on HEK-293T (replicate number 1); 0.98 with HEK-293T (replicate number 2); 0.96 with Fibroblast (replicate number 1); 1 in the data set with Fibroblast (replicate number 2); 0.13 with U2OS (replicate number 1); 0.75 with U2OS (replicate number 2).

Take `Cc1ncsc1-c1ccc(CNC(=O)[C@@H]2C[C@@H](O)CN2C(=O)[C@@H](NC(=O)COCCOCCOc2ccc(-c3ccc4ncnc(Nc5ccc(OCc6cccc(F)c6)c(Cl)c5)c4c3)cc2)C(C)(C)C)cc1`: the “Growth Rate” value in the data set with HEK-293T (replicate number 1) came out at 1; with Fibroblast (replicate number 1), 1; in the data set on Fibroblast (replicate number 2), 0.62; in the data set on U2OS (replicate number 1), 1; in the data set with U2OS (replicate number 2), 0.6.

In the case of `COc1cc(-c2cn(C)c(=O)c3cnccc23)cc(OC)c1CN(C)CC(=O)NCCOCCOCCNc1cccc2c1C(=O)N(C1CCC(=O)NC1=O)C2=O` (stereo unspecified), the “Growth Rate” value is 0.8 in the data set on HEK-293T (replicate number 1); 0.98 with HEK-293T (replicate number 2); 0.26 with Fibroblast (replicate number 1); 0.72 with Fibroblast (replicate number 2); 0.78 in the data set on U2OS (replicate number 1); 0.96 with U2OS (replicate number 2).

As to `CCn1c(=O)c(C)cn(Cc2nnc(-c3ccc(F)c(O)c3F)s2)c1=O`, the “Growth Rate” value was 1 with HEK-293T (replicate number 1); 0.97 with HEK-293T (replicate number 2); 0.03 with Fibroblast (replicate number 1); 1 with Fibroblast (replicate number 2); 1 with U2OS (replicate number 1); 0.92 with U2OS (replicate number 2).

For the molecule `COC[C@H](NC(=O)c1ccn(S(C)(=O)=O)c1)C(=O)Nc1nc(-c2cccc(-c3ccn(C)n3)c2)cs1`, the “Growth Rate” value with HEK-293T (replicate number 1) is 1; in the data set with Fibroblast (replicate number 1), 0.89; in the data set with Fibroblast (replicate number 2), 1; with U2OS (replicate number 1), 0.77.

Consider `CCCn1/c(=N/C(=O)c2cccc(C(N)=O)c2)[nH]c2ccccc21`, for which the “Growth Rate” value is listed as 0.77 in the data set on HEK-293T (replicate number 1); 0.9 in the data set on HEK-293T (replicate number 2); 1 in the data set with Fibroblast (replicate number 1); 1 in the data set with U2OS (replicate number 1); 0.99 with U2OS (replicate number 2).

For the molecule `CCC[C@H]1CNCc2c1[nH]c(=O)c(C#N)c2N1CCC2(CC1)CC2.Cl`, the “Growth Rate” value in the data set with HEK-293T (replicate number 1) is reported as 0.75; with HEK-293T (replicate number 2) it was 0.9; with Fibroblast (replicate number 1), -0.11; with Fibroblast (replicate number 2) it was 0.09; in the data set with U2OS (replicate number 1), 0.97; with U2OS (replicate number 2) it was 1.

Turning to `CCC[C@@H]1CNCc2c1[nH]c(=O)c(C#N)c2N1CCC2(CC1)CC2.Cl`, the “Growth Rate” value with HEK-293T (replicate number 1) came out at 0.66; with HEK-293T (replicate number 2), 0.97; in the data set on Fibroblast (replicate number 1), 0.62; in the data set with Fibroblast (replicate number 2), 0.92; in the data set on U2OS (replicate number 1), 0.72; in the data set with U2OS (replicate number 2), 0.8.

Regarding `O=C(c1ccc2[nH]ccc2c1)N1CCN(S(=O)(=O)c2ccc3[nH]c(=O)oc3c2)CC1`, the “Growth Rate” value in the data set on HEK-293T (replicate number 1) was 0.91; in the data set with HEK-293T (replicate number 2), 1; in the data set on Fibroblast (replicate number 1), 0.24; with Fibroblast (replicate number 2), 1; in the data set with U2OS (replicate number 1) it was 0.5; in the data set on U2OS (replicate number 2), 0.82.

As for `COc1cc(O)c2c(c1)/C=C\C[C@H](O)[C@H](O)C(=O)/C=C\C[C@H](C)OC2=O`, the “Growth Rate” value is -0.3 in the data set on HEK-293T (replicate number 1); -0.25 with HEK-293T (replicate number 2); -0.67 in the data set with Fibroblast (replicate number 1); -0.85 with Fibroblast (replicate number 2); -0.54 in the data set on U2OS (replicate number 1); -0.35 with U2OS (replicate number 2).
